Laboratory results: paper PMC9449960, “Pamoic acid is an inhibitor of HMGB1·CXCL12 elicited chemotaxis and reduces inflammation in murine models of Pseudomonas aeruginosa pneumonia” (Molecular Medicine, 2022)

Experiments:
HMGB1 = target: T1, HMGB1 (Mus musculus, UniProt P63158); test: NMR 1H-15N HSQC titration with lineshape analysis; STD, waterLOGSY, NOEs; type: binding
T1 construct: residues 1–215
T1 sequence (P63158 1-215): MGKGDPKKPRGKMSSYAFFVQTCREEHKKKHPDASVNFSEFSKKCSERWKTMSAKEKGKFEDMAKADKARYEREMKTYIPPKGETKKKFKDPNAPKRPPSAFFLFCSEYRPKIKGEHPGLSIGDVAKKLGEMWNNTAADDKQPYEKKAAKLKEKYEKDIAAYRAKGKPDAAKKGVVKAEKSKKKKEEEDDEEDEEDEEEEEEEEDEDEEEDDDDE

CXCL12 = target: T2, CXCL12 (Homo sapiens, UniProt P48061); test: NMR titration of […]-CXCL12 (chemical shift perturbation); type: binding
T2 construct: recombinant human CXCL12
T2 sequence (P48061 22-93): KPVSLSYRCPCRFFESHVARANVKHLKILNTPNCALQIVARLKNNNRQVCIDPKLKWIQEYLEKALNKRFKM

Question: What does the source list for O=C(O)c1cc2ccccc2c(Cc2c(O)c(C(=O)O)cc3ccccc23)c1O [PAM, pamoic acid]?
Answer: Kd (HMGB1): 170 ± 17 µM; Kd (CXCL12): 66 ± 4 µM
